From ChEMBL document CHEMBL5678810

Experiments:
[1] = biological target: Cytoplasmic tyrosine-protein kinase BMX (Homo sapiens) (UniProt P51813); experiment: Inhibition of T7 bacteriophage fused human BMX at 10 uM by KINOMEscan analysis relative to control
[2] = biological target: Mitogen-activated protein kinase 7 (Homo sapiens, UniProt Q13164); experiment: Inhibition of T7 bacteriophage fused human ERK5 at 10 uM by KINOMEscan analysis relative to control; values are per cent of control
[3] = biological target: Mitogen-activated protein kinase 8 (Homo sapiens) (UniProt P45983); experiment: Inhibition of T7 bacteriophage fused human JNK1 at 10 uM by KINOMEscan analysis relative to control; values are per cent of control
[4] = biological target: Bone morphogenetic protein receptor type-1B (Homo sapiens) (UniProt O00238); experiment: Inhibition of T7 bacteriophage fused human BMPR1B at 10 uM by KINOMEscan analysis relative to control
[5] = biological target: Tyrosine-protein kinase Fgr (Homo sapiens) (UniProt P09769); experiment: Inhibition of T7 bacteriophage fused human FGR at 10 uM by KINOMEscan analysis relative to control; values are per cent of control
[6] = biological target: Homeodomain-interacting protein kinase 1 (Homo sapiens) (UniProt Q86Z02); experiment: Inhibition of T7 bacteriophage fused human HIPK1 at 10 uM by KINOMEscan analysis relative to control
[7] = biological target: Serine/threonine-protein kinase N1 (Homo sapiens) (UniProt Q16512); experiment: Inhibition of T7 bacteriophage fused human PKN1 at 10 uM by KINOMEscan analysis relative to control
[8] = biological target: cAMP-dependent protein kinase catalytic subunit PRKX (Homo sapiens) (UniProt P51817); experiment: Inhibition of T7 bacteriophage fused human PRKX at 10 uM by KINOMEscan analysis relative to control
[9] = system: Receptor-type tyrosine-protein kinase FLT3 (Homo sapiens), P36888 [N841I]; experiment: Inhibition of T7 bacteriophage fused human FLT3 N841I mutant at 10 uM by KINOMEscan analysis relative to control; values are per cent of control
[10] = biological target: Dual specificity mitogen-activated protein kinase kinase 7 (Homo sapiens) (UniProt O14733); experiment: Inhibition of T7 bacteriophage fused human MKK7 at 10 uM by KINOMEscan analysis relative to control
[11] = biological target: Tyrosine-protein kinase receptor UFO (Homo sapiens) (UniProt P30530); experiment: Inhibition of T7 bacteriophage fused human AXL at 10 uM by KINOMEscan analysis relative to control
[12] = biological target: Serine/threonine-protein kinase SBK1 (Homo sapiens) (UniProt Q52WX2); experiment: Inhibition of T7 bacteriophage fused human SBK1 at 10 uM by KINOMEscan analysis relative to control
[13] = biological target: Protein kinase C epsilon type (Homo sapiens) (UniProt Q02156); experiment: Inhibition of T7 bacteriophage fused human PRKCE at 10 uM by KINOMEscan analysis relative to control
[14] = biological target: Serine/threonine-protein kinase pim-2 (Homo sapiens) (UniProt Q9P1W9); experiment: Inhibition of T7 bacteriophage fused human PIM2 at 10 uM by KINOMEscan analysis relative to control
[15] = biological target: Ephrin type-A receptor 8 (Homo sapiens) (UniProt P29322); experiment: Inhibition of T7 bacteriophage fused human EPHA8 at 10 uM by KINOMEscan analysis relative to control; values are per cent of control
[16] = biological target: Platelet-derived growth factor receptor beta (Homo sapiens) (UniProt P09619); experiment: Inhibition of T7 bacteriophage fused human PDGFRB at 10 uM by KINOMEscan analysis relative to control
[17] = biological target: Calcium/calmodulin-dependent protein kinase type IV (Homo sapiens) (UniProt Q16566); experiment: Inhibition of T7 bacteriophage fused human CAMK4 at 10 uM by KINOMEscan analysis relative to control
[18] = biological target: Serine/threonine-protein kinase SIK3 (Homo sapiens) (UniProt Q9Y2K2); experiment: Inhibition of T7 bacteriophage fused human QSK at 10 uM by KINOMEscan analysis relative to control
[19] = system: Proto-oncogene tyrosine-protein kinase receptor Ret (Homo sapiens), P07949 [M918T]; experiment: Inhibition of T7 bacteriophage fused human RET M918T mutant at 10 uM by KINOMEscan analysis relative to control
[20] = biological target: Serine/threonine-protein kinase TNNI3K (Homo sapiens) (UniProt Q59H18); experiment: Inhibition of T7 bacteriophage fused human TNNI3K at 10 uM by KINOMEscan analysis relative to control
[21] = system: eIF-2-alpha kinase GCN2 (Homo sapiens), Q9P2K8 [S808G]; experiment: Inhibition of T7 bacteriophage fused human GCN2 S808G mutant Kinase domain-2 at 10 uM by KINOMEscan analysis relative to control
[22] = biological target: Mitogen-activated protein kinase kinase kinase kinase 4 (Homo sapiens) (UniProt O95819); experiment: Inhibition of T7 bacteriophage fused human MAP4K4 at 10 uM by KINOMEscan analysis relative to control; values are per cent of control
[23] = biological target: Insulin receptor-related protein (Homo sapiens) (UniProt P14616); experiment: Inhibition of T7 bacteriophage fused human INSRR at 10 uM by KINOMEscan analysis relative to control; values are per cent of control
[24] = biological target: Cyclin-G-associated kinase (Homo sapiens) (UniProt O14976); experiment: Inhibition of T7 bacteriophage fused human GAK at 10 uM by KINOMEscan analysis relative to control; values are per cent of control
[25] = biological target: Mitogen-activated protein kinase 3 (Homo sapiens) (UniProt P27361); experiment: Inhibition of T7 bacteriophage fused human ERK1 at 10 uM by KINOMEscan analysis relative to control
[26] = biological target: Serine/threonine-protein kinase N2 (Homo sapiens) (UniProt Q16513); experiment: Inhibition of T7 bacteriophage fused human PKN2 at 10 uM by KINOMEscan analysis relative to control
[27] = biological target: Mitogen-activated protein kinase kinase kinase 6 (Homo sapiens) (UniProt O95382); experiment: Inhibition of T7 bacteriophage fused human ASK2 at 10 uM by KINOMEscan analysis relative to control
[28] = biological target: Interleukin-1 receptor-associated kinase 1 (Homo sapiens) (UniProt P51617); experiment: Inhibition of T7 bacteriophage fused human IRAK1 at 10 uM by KINOMEscan analysis relative to control
[29] = biological target: Serine/threonine-protein kinase 25 (Homo sapiens) (UniProt O00506); experiment: Inhibition of T7 bacteriophage fused human YSK1 at 10 uM by KINOMEscan analysis relative to control
[30] = biological target: 3-phosphoinositide-dependent protein kinase 1 (Homo sapiens) (UniProt O15530); experiment: Inhibition of T7 bacteriophage fused human PDPK1 at 10 uM by KINOMEscan analysis relative to control
3-phosphoinositide-dependent protein kinase 1 (Homo sapiens), sequence (O15530 whole entry, the tested form may be a part): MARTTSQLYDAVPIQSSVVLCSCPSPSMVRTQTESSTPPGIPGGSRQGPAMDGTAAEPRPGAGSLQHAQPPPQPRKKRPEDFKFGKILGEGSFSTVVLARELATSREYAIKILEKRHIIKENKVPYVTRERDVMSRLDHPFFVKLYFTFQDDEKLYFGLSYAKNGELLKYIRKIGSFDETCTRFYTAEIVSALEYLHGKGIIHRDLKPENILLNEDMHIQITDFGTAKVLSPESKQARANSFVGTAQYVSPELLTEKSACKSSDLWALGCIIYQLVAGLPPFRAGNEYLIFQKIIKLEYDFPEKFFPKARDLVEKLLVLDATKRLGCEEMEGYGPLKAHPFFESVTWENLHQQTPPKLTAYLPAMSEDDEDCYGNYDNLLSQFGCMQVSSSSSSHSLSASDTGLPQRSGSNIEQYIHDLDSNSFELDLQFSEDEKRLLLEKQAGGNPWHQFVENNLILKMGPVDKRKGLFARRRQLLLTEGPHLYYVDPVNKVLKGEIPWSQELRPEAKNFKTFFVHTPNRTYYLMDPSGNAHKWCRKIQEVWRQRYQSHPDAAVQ

Mitogen-activated protein kinase kinase kinase 6 (Homo sapiens), sequence (O95382 whole entry, the tested form may be a part): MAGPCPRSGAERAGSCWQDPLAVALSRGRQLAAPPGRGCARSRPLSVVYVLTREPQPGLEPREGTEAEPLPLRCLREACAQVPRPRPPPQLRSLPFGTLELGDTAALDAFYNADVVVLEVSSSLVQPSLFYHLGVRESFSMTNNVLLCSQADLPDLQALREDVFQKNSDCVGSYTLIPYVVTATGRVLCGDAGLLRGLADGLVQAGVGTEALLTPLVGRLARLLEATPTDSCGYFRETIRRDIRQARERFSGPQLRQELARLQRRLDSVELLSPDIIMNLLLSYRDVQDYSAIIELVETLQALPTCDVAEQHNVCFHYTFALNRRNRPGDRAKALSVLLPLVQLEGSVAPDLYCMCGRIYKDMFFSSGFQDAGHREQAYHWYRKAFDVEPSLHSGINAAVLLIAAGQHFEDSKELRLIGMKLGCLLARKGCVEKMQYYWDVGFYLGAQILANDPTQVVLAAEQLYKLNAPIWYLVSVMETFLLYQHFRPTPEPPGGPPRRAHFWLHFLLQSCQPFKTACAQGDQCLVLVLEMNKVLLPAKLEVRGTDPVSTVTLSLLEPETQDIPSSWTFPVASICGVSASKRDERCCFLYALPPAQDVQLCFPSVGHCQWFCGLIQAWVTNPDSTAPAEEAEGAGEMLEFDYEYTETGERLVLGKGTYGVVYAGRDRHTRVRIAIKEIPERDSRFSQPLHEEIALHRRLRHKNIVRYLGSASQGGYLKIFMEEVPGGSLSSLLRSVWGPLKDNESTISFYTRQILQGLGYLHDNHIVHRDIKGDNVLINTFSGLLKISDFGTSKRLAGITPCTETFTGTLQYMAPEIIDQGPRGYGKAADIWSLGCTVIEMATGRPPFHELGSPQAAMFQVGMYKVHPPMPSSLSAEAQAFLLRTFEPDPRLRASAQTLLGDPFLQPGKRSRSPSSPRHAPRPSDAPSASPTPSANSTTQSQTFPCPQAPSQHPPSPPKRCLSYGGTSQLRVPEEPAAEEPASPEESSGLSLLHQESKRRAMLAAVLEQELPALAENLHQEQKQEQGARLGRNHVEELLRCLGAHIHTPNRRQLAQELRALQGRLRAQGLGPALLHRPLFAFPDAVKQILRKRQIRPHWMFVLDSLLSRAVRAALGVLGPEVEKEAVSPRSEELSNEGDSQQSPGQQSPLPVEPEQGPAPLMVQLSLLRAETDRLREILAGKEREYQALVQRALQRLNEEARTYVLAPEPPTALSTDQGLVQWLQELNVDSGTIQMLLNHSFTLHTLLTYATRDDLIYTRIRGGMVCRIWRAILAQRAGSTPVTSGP
Mitogen-activated protein kinase 8 (Homo sapiens), sequence (P45983 whole entry, the tested form may be a part): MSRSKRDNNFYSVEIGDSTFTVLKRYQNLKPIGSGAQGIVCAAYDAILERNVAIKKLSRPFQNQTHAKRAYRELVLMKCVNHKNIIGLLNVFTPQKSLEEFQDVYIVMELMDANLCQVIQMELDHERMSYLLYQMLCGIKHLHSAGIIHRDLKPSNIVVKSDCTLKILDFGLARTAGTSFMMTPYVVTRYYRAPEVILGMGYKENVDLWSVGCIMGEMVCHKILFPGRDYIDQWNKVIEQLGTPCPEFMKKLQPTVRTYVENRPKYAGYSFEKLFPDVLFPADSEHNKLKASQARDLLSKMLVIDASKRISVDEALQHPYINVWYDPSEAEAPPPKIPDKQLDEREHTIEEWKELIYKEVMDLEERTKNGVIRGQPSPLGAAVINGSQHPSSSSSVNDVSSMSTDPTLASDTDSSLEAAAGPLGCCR
Serine/threonine-protein kinase SIK3 (Homo sapiens), sequence (Q9Y2K2 whole entry, looked up, the tested form may be a part): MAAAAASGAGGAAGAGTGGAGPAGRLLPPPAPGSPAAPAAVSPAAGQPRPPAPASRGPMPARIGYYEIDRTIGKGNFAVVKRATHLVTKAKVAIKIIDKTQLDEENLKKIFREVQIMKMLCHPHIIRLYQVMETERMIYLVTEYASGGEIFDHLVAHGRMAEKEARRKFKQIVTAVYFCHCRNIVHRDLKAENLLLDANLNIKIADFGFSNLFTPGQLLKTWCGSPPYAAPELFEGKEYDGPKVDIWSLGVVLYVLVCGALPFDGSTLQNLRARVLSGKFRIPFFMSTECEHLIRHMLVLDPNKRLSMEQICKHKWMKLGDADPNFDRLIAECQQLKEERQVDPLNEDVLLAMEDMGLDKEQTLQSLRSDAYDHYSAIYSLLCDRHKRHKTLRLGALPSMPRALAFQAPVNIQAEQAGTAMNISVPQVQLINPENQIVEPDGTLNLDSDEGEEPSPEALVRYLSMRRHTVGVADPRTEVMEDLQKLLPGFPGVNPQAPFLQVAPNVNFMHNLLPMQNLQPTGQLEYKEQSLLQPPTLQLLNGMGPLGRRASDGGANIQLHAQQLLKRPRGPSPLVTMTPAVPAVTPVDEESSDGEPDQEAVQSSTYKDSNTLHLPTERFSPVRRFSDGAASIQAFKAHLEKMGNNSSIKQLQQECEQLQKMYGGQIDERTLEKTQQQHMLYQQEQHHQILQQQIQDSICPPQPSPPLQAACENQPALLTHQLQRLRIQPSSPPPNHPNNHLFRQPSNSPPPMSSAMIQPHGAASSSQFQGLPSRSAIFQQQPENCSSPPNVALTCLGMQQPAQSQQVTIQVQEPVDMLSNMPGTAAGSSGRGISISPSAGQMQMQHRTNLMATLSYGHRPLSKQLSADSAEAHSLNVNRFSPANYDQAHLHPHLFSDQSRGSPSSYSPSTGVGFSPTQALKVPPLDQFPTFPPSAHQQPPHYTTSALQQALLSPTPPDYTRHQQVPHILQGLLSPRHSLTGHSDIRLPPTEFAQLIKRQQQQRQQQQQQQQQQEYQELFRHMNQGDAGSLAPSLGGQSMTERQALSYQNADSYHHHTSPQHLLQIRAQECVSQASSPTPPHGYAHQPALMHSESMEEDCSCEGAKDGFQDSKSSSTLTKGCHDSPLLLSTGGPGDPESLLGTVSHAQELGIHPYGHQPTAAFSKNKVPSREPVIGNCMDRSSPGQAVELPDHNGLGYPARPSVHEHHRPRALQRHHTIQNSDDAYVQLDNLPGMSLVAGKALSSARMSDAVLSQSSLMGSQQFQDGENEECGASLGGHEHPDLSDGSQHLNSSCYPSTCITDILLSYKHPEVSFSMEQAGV
Serine/threonine-protein kinase TNNI3K (Homo sapiens), sequence (Q59H18 whole entry, the tested form may be a part): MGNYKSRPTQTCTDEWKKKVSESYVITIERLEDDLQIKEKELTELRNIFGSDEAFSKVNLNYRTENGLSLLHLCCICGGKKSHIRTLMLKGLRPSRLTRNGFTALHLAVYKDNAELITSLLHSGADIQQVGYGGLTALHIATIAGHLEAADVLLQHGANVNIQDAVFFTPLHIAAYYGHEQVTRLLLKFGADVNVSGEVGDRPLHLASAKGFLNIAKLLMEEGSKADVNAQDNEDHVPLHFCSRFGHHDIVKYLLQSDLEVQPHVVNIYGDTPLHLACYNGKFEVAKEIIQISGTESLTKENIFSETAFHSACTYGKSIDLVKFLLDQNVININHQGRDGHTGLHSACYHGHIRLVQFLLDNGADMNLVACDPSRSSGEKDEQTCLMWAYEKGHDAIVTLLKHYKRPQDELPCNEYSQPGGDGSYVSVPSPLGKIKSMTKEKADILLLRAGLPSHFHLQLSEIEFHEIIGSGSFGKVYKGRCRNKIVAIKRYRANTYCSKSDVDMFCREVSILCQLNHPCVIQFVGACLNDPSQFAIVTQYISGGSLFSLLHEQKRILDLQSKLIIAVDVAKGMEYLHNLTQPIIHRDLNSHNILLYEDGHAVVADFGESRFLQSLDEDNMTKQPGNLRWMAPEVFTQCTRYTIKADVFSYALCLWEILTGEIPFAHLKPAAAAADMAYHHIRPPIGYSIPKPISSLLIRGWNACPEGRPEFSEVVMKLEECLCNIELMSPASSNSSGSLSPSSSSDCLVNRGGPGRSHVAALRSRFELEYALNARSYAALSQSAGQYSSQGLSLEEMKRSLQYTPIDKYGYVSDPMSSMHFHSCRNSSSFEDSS
Bone morphogenetic protein receptor type-1B (Homo sapiens), sequence (O00238 whole entry, the tested form may be a part): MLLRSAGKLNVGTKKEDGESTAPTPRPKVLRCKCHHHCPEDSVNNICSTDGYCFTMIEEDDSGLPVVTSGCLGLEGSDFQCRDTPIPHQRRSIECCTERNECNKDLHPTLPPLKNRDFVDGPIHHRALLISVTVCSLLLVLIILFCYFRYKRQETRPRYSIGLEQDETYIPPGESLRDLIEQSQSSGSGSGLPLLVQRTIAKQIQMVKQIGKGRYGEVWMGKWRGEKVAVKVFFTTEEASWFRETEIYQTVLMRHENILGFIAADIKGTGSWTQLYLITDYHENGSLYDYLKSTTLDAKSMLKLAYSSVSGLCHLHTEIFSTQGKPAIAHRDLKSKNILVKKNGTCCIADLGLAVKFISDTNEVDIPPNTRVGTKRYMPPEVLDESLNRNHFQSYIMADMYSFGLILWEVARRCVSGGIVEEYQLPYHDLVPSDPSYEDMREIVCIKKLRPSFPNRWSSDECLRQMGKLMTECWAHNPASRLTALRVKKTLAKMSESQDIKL

`COc1cc(N2CCC(N3CCN(C)CC3)CC2)ccc1Nc1ncc2c(n1)N(C)c1ccccc1C(=O)N2C` gave an inhibition [1] of 87%, a residual activity [2] of 0.05% and a residual activity [3] of 95%. It also gave an inhibition [4] of 76%, a residual activity [5] of 84% and an inhibition [6] of 100%. For the same compound, the inhibition [7] was 100%, the inhibition [8] was 99% and the residual activity [9] was 73%. The inhibition [10] was 100%, the inhibition [11] was 100% and the inhibition [12] was 100%. It also gave an inhibition [13] of 100%, an inhibition [14] of 100% and a residual activity [15] of 80%. For the same compound, the inhibition [16] was 100%, the inhibition [17] was 79% and the inhibition [18] was 100%. For the same compound, the inhibition [19] was 100%, the inhibition [20] was 100% and the inhibition [21] was 95%. For the same compound, the residual activity [22] was 85%, the residual activity [23] was 97% and the residual activity [24] was 16%. For the same compound, the inhibition [25] was 100%, the inhibition [26] was 95% and the inhibition [27] was 100%. It also gave an inhibition [28] of 100%, an inhibition [29] of 68% and an inhibition [30] of 100%.
